Read-outs that look alike come from different tables or passages of the source.

The subject of one data set is U937 monocyte. Nature of the data set: U937 monocyte Trypan blue cell death (LD50). In kind it is cell-based, human. The conditions noted are these: U937 monocytes, 16 h. As for the experimental part:
(§1) FIGS. 20A-20J is a table depicting benzathine compounds, and assay results. PBMC cells (0.6 ml at 1.5*10^6/ml) were treated with 2 ug/ml LPS for 16 hrs along with each compound at different concentrations. IL1β and TNFα cytokine release were monitored by ELISA to calculate the IC50. U937 monocyte (0.6 ml at 1.5*10^6/ml) were treated with each compound at different concentrations for 16 h. Cells were then stained with Trypan blue to differentiate dead cells, and calculate the LD50. Therapeutic index (TI)=LD50/IC50. Compounds marked in red are high value targets (low IC50, high LD50) and require further testing in vivo.
(§2) Briefly, compounds were added to human PBMC cells at different concentrations that were exposed to […] and cytokine secretion was monitored by ELISA to determine the IC50. Compounds were also added to U937 monocytes at different concentrations, and cells were stained with trypan blue to determine the LD50. […] Several functional studies were undertaken to assess anti-inflammatory effects focusing on BC-1215.

For data set [1], the system named is C57BL6 mice. The data set can be described thus: TPA induced ear edema. In kind it is in vivo. The conditions noted are these: topical, 8, 40, 200 ug/ear, 18 h after TPA. As for the experimental part:
FIGS. 15A-15C. […] FIG. 15A-15C. C57BL6 mice were deeply anesthetized with ketamine (80-100 mg/kg i.p.) and xylazine (10 mg/kg i.p.). 20 μl of ethanol solution of BC-1215 was applied to ears at 8, 40, 200 ug/ear 30 min after TPA administration (2 μg/ear). Comparisons included equal volumes of ethanol (vehicle control). 18 h after TPA administration, mice were euthanized; the thickness of the ear was measured using a micrometer (FIG. 15B). Ear punch biopsies were also taken immediately, weighed and graphed (FIG. 15C).
FIGS. 23A-23D. […] Different dose of BC-1261 was applied to ears of mice at various doses 30 min after TPA administration (2 μg/ear). A. Gross comparisons were made with equal volumes of ethanol as a vehicle control (CON). 18 h after TPA administration, mice were euthanized and the thickness of the ear was measured using a micrometer (B). Autopsy sample were also taken to measure MPO activity (C) and calculate ear edema (D). The data represent n=6 mice/group, *P<0.05 versus TPA.
Topical application of BC-1215 as an anti-inflammatory agent was tested in a model of 12-O-tetradecanoylphorbol-13-acetate (TPA) induced ear edema (Bralley et. al., J Inflamm (LOnd), 2008. 5:p.1). Briefly, 20 μl of an ethanol solution of BC-1215 was applied to ears of mice at 8, 40, and 200 ug/ear for 30 min after TPA administration (2 μg/ear). Comparisons included equal volumes of ethanol (vehicle control). 18 h after TPA administration, mice were euthanized; the thickness of the ear was measured using a micrometer. Ear punch biopsies were also taken immediately, weighed, and graphed.

For a further data set, the system named is Staphylococcus aureus. The data set can be described thus: Kirby-Bauer antibiotic sensitivity test on Mueller-Hinton agar. In kind it is cell-based. The conditions noted are these: 6 mm filter papers, 37 degrees, 24 h. As for the experimental part:
FIG. 19. Kirby-Bauer antibiotic testing. BC-1215 was tested in antibiotic sensitivity tests using Mueller-Hinton agar. Briefly, 6 mm filter papers containing different amounts of BC-1215 or gentamicin (positive control) were added on the Mueller-Hinton agar pre-exposed to Staphylococcus aureus. The plates were incubated at 37 degrees for 24 h. Zone sizes were measured and marked by a red circle indicating positive results.
Briefly, 6 mm filter papers containing different amounts of BC-1215 or gentamicin antibiotic (positive control) were added on the Mueller-Hinton agar pre-exposed to Staphylococcus aureus. The plates were incubated at 37 degrees for 24 h. Zone sizes were measured and marked by a red circle indicating positive results.

The test system of data set [2] is C57BL6 mice. In kind it is in vivo. Particulars: mouse, in vivo.
The subject of data set [3] is C57BL6 mice. Nature of the data set: LPS induced (endotoxin) septic shock model. In kind it is in vivo. Particulars: IP, 10 min before 100 ug LPS IP; blood at 90 min. As to the method: FIG. 11. BC-1215 inhibits cytokine release from in an endotoxin septic shock model. BC-1215 was solubilized in water using acetic acid in a 1:2 molar ratio; the stock solution of BC-1215 was 5 mg/ml. C57BL6 mice were deeply anesthetized with ketamine (80-100 mg/kg intraperitoneally (i.p.) and xylazine (10 mg/kg i.p.). 500 ug, 100 ug, 20 ug, 4 ug and 0.8 ug of BC-1215 was administered to mice through an intraperitoneal (IP) injection. 10 min later, mice were given 100 ug of LPS (E. coli) through an IP injection. 90 min later, mice were euthanized; blood was collected and tested for IL1-β, IL-6 and TNFα assays. (n=3/mice group at each dose)
Compound BC-1215 was first solubilized in water using acetic acid in a 1:2 molar ratio; the stock solution of BC-1215 was 5 mg/ml. 500 ug, 100 ug, 20 ug, 4 ug and 0.8 ug of BC-1215 was administered to mice though an intraperitoneal (IP) injection. 10 min later, mice were given 100 ug of LPS (E. coli) through an IP injection. 90 min later, mice were euthanized; blood was collected and tested for IL1-β, IL-6 and TNFα cytokine assays.

Data set [4] concerns C57BL6 mice. Nature of the data set: Pseudomonas aeruginosa PA103 pneumonia model. The conditions noted are these: 100 ug IP, PA103 18 h. In kind it is in vivo.
The next data set relates to human PBMC cells. Nature of the data set: LPS-induced IL1β and TNFα cytokine release from PBMC cells (ELISA). In kind it is cell-based. Particulars: LPS-exposed human PBMC. As to the method: as §1, §2
On the technique in general: ELISA stands for enzyme-linked immunosorbent assay.

Another data set concerns the target FBXO3 (Homo sapiens, UniProt Q9UK99). Nature of the data set: In vitro ubiquitination assay, SCFFBXO3 complex with V5-FBXL2 substrate. In kind it is biochemical. Particulars: increased concentration of compound. An excerpt: FIGS. 10A-10E. BC-1215 inhibits FBXO3 and decreases TRAF protein levels. FIG. 10A. […] FIG. 10B. In vitro ubiquitination assays. […] FIG. 10C. […] Cells were collected and assayed for immunoblotting. FIG. 10D. […] FIG. 10E.
BC-1215 inhibits FBXO3 and decreases TRAF protein levels. […] Cells were collected and assayed for protein immunoblotting.

FBXO3, sequence (Q9UK99 whole entry): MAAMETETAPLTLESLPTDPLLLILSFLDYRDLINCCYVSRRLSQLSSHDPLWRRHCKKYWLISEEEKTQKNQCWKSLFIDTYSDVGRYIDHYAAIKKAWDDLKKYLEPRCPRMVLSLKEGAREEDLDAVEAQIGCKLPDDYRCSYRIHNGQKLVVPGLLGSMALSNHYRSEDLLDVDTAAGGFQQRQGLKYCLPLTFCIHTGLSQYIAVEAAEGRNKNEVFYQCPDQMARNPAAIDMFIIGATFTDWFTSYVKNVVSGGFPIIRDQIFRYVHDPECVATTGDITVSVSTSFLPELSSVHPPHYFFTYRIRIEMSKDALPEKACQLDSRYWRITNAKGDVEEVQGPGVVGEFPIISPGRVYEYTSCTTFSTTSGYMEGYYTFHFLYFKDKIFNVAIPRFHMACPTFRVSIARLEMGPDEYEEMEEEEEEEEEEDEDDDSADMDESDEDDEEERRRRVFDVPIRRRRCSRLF
FBXO3, sequence (P63208 whole entry partner): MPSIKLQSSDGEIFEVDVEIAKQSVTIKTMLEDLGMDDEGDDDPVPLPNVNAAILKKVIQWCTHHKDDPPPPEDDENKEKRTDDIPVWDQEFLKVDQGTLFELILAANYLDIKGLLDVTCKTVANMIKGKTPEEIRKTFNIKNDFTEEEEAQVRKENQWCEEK
FBXO3, sequence (Q13616 whole entry partner): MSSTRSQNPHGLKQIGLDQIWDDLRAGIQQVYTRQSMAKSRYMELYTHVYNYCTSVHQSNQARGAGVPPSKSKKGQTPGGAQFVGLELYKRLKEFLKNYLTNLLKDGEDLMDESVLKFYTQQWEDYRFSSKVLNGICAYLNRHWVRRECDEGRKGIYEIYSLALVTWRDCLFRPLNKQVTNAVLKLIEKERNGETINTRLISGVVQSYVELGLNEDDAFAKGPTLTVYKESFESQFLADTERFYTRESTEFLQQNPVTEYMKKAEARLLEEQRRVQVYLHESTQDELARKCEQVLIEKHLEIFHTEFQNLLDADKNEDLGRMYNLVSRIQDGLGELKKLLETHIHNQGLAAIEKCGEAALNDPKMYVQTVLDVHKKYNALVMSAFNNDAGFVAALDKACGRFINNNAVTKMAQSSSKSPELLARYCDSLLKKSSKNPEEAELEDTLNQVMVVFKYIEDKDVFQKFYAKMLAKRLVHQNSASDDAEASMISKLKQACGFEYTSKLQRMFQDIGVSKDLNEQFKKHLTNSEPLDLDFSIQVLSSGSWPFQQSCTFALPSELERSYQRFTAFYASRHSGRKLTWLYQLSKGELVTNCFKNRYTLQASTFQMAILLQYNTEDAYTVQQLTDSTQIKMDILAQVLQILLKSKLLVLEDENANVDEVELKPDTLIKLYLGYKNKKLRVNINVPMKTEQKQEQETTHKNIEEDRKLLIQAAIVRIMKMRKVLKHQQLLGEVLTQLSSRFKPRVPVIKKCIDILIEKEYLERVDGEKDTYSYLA
FBXO3, sequence (P62877 whole entry partner): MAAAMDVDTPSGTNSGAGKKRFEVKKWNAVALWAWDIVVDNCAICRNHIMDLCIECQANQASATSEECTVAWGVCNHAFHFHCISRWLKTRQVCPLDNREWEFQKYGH

With `c1ccc(-c2ccc(CNCCNCc3ccc(-c4ccccn4)cc3)cc2)nc1` [BC-1215], the LD50 result in the data set on U937 monocyte is listed as “low”. In addition, in the data set with C57BL6 mice [1], the ear edema entry is “significantly resolve edema”, the ear thickness result is listed as “significantly reduced” and the “ear weight (punch biopsies)” value is “significantly reduced”. Moreover, the “S. aureus proliferation (zone of inhibition)” value in the data set on Staphylococcus aureus is “inhibits S. aureus proliferation”. In addition, in the data set on C57BL6 mice [2], the cell infiltrates result was “remarkably decreased”, the lavage cell counts entry was “remarkably decreased”, the lavage protein concentration result is “remarkably decreased” and the lung compliance result is reported as “increased compliance”. In addition, in the data set on C57BL6 mice [2], the lung edema result is reported as “remarkably decreased”, the lung elastance entry is given as “reduced elastance” and the survival result was “significantly increased their survival”. Besides, in the data set with C57BL6 mice [3], the “IC50 IL-1β” value is reported as 1 mg/kg, the “IC50 IL-6” value worked out at 2.5 mg/kg and the “IC50 TNFα” value amounted to 1.2 mg/kg. For the same compound, in the data set with C57BL6 mice [4], the cell infiltrates result was “decreased”, the lavage cell counts result is recorded as “decreased”, the “lavage pro-inflammatory cytokine levels” value is “significantly decreased” and the lavage protein concentration result was “decreased”. In addition, in the data set on C57BL6 mice [4], the lung compliance result is on record as “increased compliance”, the lung elastance entry is “reduced elastance” and the lung resistance entry was “decreased lung resistance”. Besides, the “IC50 (cytokine secretion)” value in the data set on human PBMC cells was “high”. Also, the “FBXO3 catalyzed FBXL2 polyubiquitination” value at FBXO3 is reported as “able to inhibit FBXO3 catalyzed FBXL2 polyubiquitination”.
